Laboratory results published in patent US8940909B2, “Indicator platform” (Biosynth AG, priority 2009, dated 2015).

Assays:
Experiment in all cases: IO staining of colonies of beta-D-galactosidase positive/negative bacteria (Table IVb)
Format in all cases: cell-based
[1] = test system: Salmonella enteritidis 43; conditions: Salmonella enteritidis strain 43, b-gal −; 24 h on Nutrient Agar, 150 mg/l indicator, 100 mg/l IPTG; note: key: −: absent; +/−: weak; +: strong; ++: very strong
[2] = test system: Streptococcus agalactiae 195; conditions: Streptococcus agalactiae strain 195, b-gal −; 24 h on Nutrient Agar, 150 mg/l indicator, 100 mg/l IPTG; for C: Color of colonies: key: −: absent; +/−: weak; +: strong; ++: very strong; for F: Fluorescence of colonies: key: −: absent; +/−: weak; +: strong; ++: very strong
Escherichia coli 61 = conditions: Escherichia coli strain 61, b-gal +; 24 h on Nutrient Agar, 150 mg/l indicator, 100 mg/l IPTG
[3] = test system: Enterobacter aerogenes 242; conditions: Enterobacter aerogenes strain 242, b-gal +; 24 h on Nutrient Agar, 150 mg/l indicator, 100 mg/l IPTG; for C: Color of colonies: key: −: absent; +/−: weak; +: strong; ++: very strong; for G: Growth of colonies: key: −: absent; +/−: weak; +: strong; ++: very strong
Enterobacter cloacae 245 = conditions: Enterobacter cloacae strain 245, b-gal +; 24 h on Nutrient Agar, 150 mg/l indicator, 100 mg/l IPTG
Shigella sonnei 133 = conditions: Shigella sonnei strain 133, b-gal +/−; 24 h on Nutrient Agar, 150 mg/l indicator, 100 mg/l IPTG
Salmonella bongori 81 = conditions: Salmonella bongori strain 81, b-gal +; 24 h on Nutrient Agar, 150 mg/l indicator, 100 mg/l IPTG
[4] = test system: Klebsiella pneumoniae 164; conditions: Klebsiella pneumoniae strain 164, b-gal +; 24 h on Nutrient Agar, 150 mg/l indicator, 100 mg/l IPTG; for C: Color of colonies: key: −: absent; +/−: weak; +: strong; ++: very strong; for G: Growth of colonies: key: −: absent; +/−: weak; +: strong; ++: very strong
Citrobacter freundii 181 = conditions: Citrobacter freundii strain 181, b-gal +; 24 h on Nutrient Agar, 150 mg/l indicator, 100 mg/l IPTG
Aeromonas hydrophila 292 = conditions: Aeromonas hydrophila strain 292, b-gal +; 24 h on Nutrient Agar, 150 mg/l indicator, 100 mg/l IPTG
[5] = test system: Shigella dysenteriae Serovar 1 131; conditions: Shigella dysenteriae Serovar 1 strain 131, b-gal +/−; 24 h on Nutrient Agar, 150 mg/l indicator, 100 mg/l IPTG
Escherichia coli 270 = conditions: Escherichia coli strain 270, b-gal +; 24 h on Nutrient Agar, 150 mg/l indicator, 100 mg/l IPTG
Serratia marcescens 40 = conditions: Serratia marcescens strain 40, b-gal +; 24 h on Nutrient Agar, 150 mg/l indicator, 100 mg/l IPTG
[6] = test system: Escherichia coli (O157:H7) 60; conditions: Escherichia coli (O157:H7) strain 60, b-gal +; 24 h on Nutrient Agar, 150 mg/l indicator, 100 mg/l IPTG
[7] = test system: Staphylococcus intermedius 31; conditions: Staphylococcus intermedius strain 31, b-gal +; 24 h on Nutrient Agar, 150 mg/l indicator, 100 mg/l IPTG
Shigella boydii 135 = conditions: Shigella boydii strain 135, b-gal −; 24 h on Nutrient Agar, 150 mg/l indicator, 100 mg/l IPTG
[8] = test system: Pseudomonas aeruginosa 168; conditions: Pseudomonas aeruginosa strain 168, b-gal −, 24 h on Nutrient Agar, 150 mg/l indicator, 100 mg/l IPTG; for C: Color of colonies: key: −: absent; +/−: weak; +: strong; ++: very strong; for G: Growth of colonies: key: −: absent; +/−: weak; +: strong; ++: very strong
[9] = test system: Staphylococcus saprophyticus 273; conditions: Staphylococcus saprophyticus strain 273, b-gal +; 24 h on Nutrient Agar, 150 mg/l indicator, 100 mg/l IPTG; for G: Growth of colonies: key: −: absent; +/−: weak; +: strong; ++: very strong
Staphylococcus aureus 2 = conditions: Staphylococcus aureus strain 2, b-gal −, 24 h on Nutrient Agar, 150 mg/l indicator, 100 mg/l IPTG
[10] = test system: Listeria monocytogenes (4b) 290; conditions: Listeria monocytogenes (4b) strain 290, b-gal −; 24 h on Nutrient Agar, 150 mg/l indicator, 100 mg/l IPTG; for C: Color of colonies: key: −: absent; +/−: weak; +: strong; ++: very strong; for F: Fluorescence of colonies: key: −: absent; +/−: weak; +: strong; ++: very strong
[11] = test system: Yersinia enterocolitica 175; conditions: Yersinia enterocolitica strain 175, b-gal +/−; 24 h on Nutrient Agar, 150 mg/l indicator, 100 mg/l IPTG; for G: Growth of colonies: key: −: absent; +/−: weak; +: strong; ++: very strong
Bacillus subtilis 65 = conditions: Bacillus subtilis strain 65, b-gal −; 24 h on Nutrient Agar, 150 mg/l indicator, 100 mg/l IPTG
Salmonella illa 73 = conditions: Salmonella illa strain 73, b-gal +; 24 h on Nutrient Agar, 150 mg/l indicator, 100 mg/l IPTG

COc1ccc(C(=O)c2ccccc2-n2cc(O[C@@H]3O[C@H](CO)[C@H](O)[C@H](O)[C@H]3O)c3ccccc32)c(OC)c1 [Indicator I25a, 1-[2-(2,4-Dimethoxybenzoyl)phenyl]-1H-indol-3-yl-beta-D-galactopyranoside]
−: C: Color of colonies [1] | F: Fluorescence of colonies [1] | C: Color of colonies [2] | F: Fluorescence of colonies [2] | C: Color of colonies [5] | F: Fluorescence of colonies [5] | C: Color of colonies (Shigella boydii 135) | F: Fluorescence of colonies (Shigella boydii 135) | C: Color of colonies [8] | F: Fluorescence of colonies (Staphylococcus aureus 2) | C: Color of colonies [10] | F: Fluorescence of colonies [10] | C: Color of colonies [11] | F: Fluorescence of colonies [11] | C: Color of colonies (Bacillus subtilis 65) | F: Fluorescence of colonies (Bacillus subtilis 65) | C: Color of colonies (Salmonella illa 73) | F: Fluorescence of colonies (Salmonella illa 73)
++: C: Color of colonies (Escherichia coli 61) | F: Fluorescence of colonies (Escherichia coli 61) | F: Fluorescence of colonies (Enterobacter cloacae 245) | F: Fluorescence of colonies (Shigella sonnei 133) | C: Color of colonies (Escherichia coli 270) | F: Fluorescence of colonies (Escherichia coli 270) | C: Color of colonies [6] | F: Fluorescence of colonies [6]
+^1: F: Fluorescence of colonies ([8]; footnote 1: blue autofluorescence)
+/−^2: C: Color of colonies (Staphylococcus aureus 2; footnote 2: S. aureus natural color)
+/−: G: Growth of colonies [2] | C: Color of colonies (Salmonella bongori 81) | F: Fluorescence of colonies (Salmonella bongori 81) | F: Fluorescence of colonies (Aeromonas hydrophila 292) | F: Fluorescence of colonies (Serratia marcescens 40) | C: Color of colonies [7] | F: Fluorescence of colonies [7] | C: Color of colonies [9] | F: Fluorescence of colonies [9] | G: Growth of colonies [10]
+: G: Growth of colonies [1] | G: Growth of colonies (Escherichia coli 61) | C: Color of colonies [3] | F: Fluorescence of colonies [3] | G: Growth of colonies [3] | C: Color of colonies (Enterobacter cloacae 245) | G: Growth of colonies (Enterobacter cloacae 245) | C: Color of colonies (Shigella sonnei 133) | G: Growth of colonies (Shigella sonnei 133) | G: Growth of colonies (Salmonella bongori 81) | C: Color of colonies [4] | F: Fluorescence of colonies [4] | G: Growth of colonies [4] | C: Color of colonies (Citrobacter freundii 181) | F: Fluorescence of colonies (Citrobacter freundii 181) | G: Growth of colonies (Citrobacter freundii 181) | C: Color of colonies (Aeromonas hydrophila 292) | G: Growth of colonies (Aeromonas hydrophila 292) | G: Growth of colonies [5] | G: Growth of colonies (Escherichia coli 270) | C: Color of colonies (Serratia marcescens 40) | G: Growth of colonies (Serratia marcescens 40) | G: Growth of colonies [6] | G: Growth of colonies [7] | G: Growth of colonies (Shigella boydii 135) | G: Growth of colonies [8] | G: Growth of colonies [9] | G: Growth of colonies (Staphylococcus aureus 2) | G: Growth of colonies [11] | G: Growth of colonies (Bacillus subtilis 65) | G: Growth of colonies (Salmonella illa 73)
